The results in this text go back to PMC11726359, “Discovery of Rezatapopt (PC14586), a First-in-Class, Small-Molecule Reactivator of p53 Y220C Mutant in Development” (ACS Medicinal Chemistry Letters, 2024).

Like-named read-outs stand apart in the source and are kept apart here.

Data set [1] has as its target T1, recombinant His-tag Y220C p53 DNA binding domain (Homo sapiens, UniProt P04637, Y220C).
T1 construct: Y220C p53 DBD protein (amino acids #94-312); made in house
The data set is described as follows: TR-FRET DNA binding assay (SC150). In kind it is biochemical. The source says:
At the outset of our hit generation campaign, several small molecules targeting the p53 Y220C mutant protein were identified. Two notable examples, supported by crystallographic data, were the compounds from the carbazole series[6] (PhiKan83) and the iodophenol series[7] (PK1596) (Figure 1). To assess the in vitro potency of the p53 Y220C reactivators, a time-resolved fluorescence resonance energy transfer (FRET) assay was developed. In this assay, recombinant His-tag Y220C p53 DNA binding domain binds to biotin-labeled consensus DNA, and the FRET signal is measured between the allophycocyanin-conjugated anti-His-tag antibody and europium-conjugated streptavidin. The […] concentration required to increase DNA binding by 1.5-fold (SC150) could then be determined. The carbazole compound (PhiKan83) enhanced DNA binding with an SC150 of 37.2 μM. […]
Time-Resolved Fluorescence Resonance Energy Transfer (TR-FRET) Assay
DNA binding activity was measured by the TR-FRET assay. In this assay, the recombinant His6-tag Y220C p53 DNA binding domain (DBD) protein binds to biotin labeled consensus DNA. The binding of recombinant His6-tag Y220C p53 DBD protein and biotin-labeled consensus DNA is detected by the fluorescence resonance energy transfer (FRET) between allophycocyanin (APC) conjugated anti-His6 tag antibody and Europium-(Eu) conjugated Streptavidin. Test compounds, at 2 mM stock in DMSO, were diluted t hr e e-f ol d in serial dilutions in DMSO and 1.2 µL per well were added into 384-well polypropylene black plates (NUNC). Subsequently, 30 µL per well of 181 nM recombinant His6-tag Y220C p53 DBD protein (amino acids #94-312) and 9.1 nM of APC conjugated anti-His6 tag antibody (Columbia Biosciences) in ice-cold Assay Buffer 1 (50 mM Tris-HCl, pH 7.4, 75 mM KCl, 0.75 mM DTT and 0.2 mg/mL bovine serum albumin [BSA]) was added. As a background control, 30 µL of Assay Buffer 1 containing 9.1 nM of APC anti-His6 antibody (no Y220C protein) was also added into a second set of serial diluted compound plates. The samples were centrifuged at 1,200 rpm (Eppendorf 5810R plate centrifuge) for 1 minute and incubated at room temperature (20 °C) for 15 min. The samples were then incubated at 27 °C in a water bath for 48 min. Afterwards, 5 µL per well of 145 nM biotin labeled oligonucleotide from a consensus DNA p53 response element (a DNA duplex with 5’ to 3’sequence of […]
and biotin attached to the 3’ end of the complementary DNA) and 8.8 nM Eu-conjugated streptavidin (Columbia Biosciences) in Assay Buffer 2 (50 mM Tris-HCl, pH 7.4, 75 mM KCl and 0.2 mg/mL BSA) were added. The samples were centrifuged at 1,200 rpm for 1 min and incubated at room temperature (20 °C) for 20 min. Assay signals were monitored by reading excitation at 340 nm, and emission fluorescence at 615 and 665 nm, on an Envision reader (Perkin El mer). Normalized TR -FRET assay signal (Rn) was calculated by the formula:
Rn = [(A − B a − C × (D − Bd))/(D − Bd)] × (Dc − B d),
C = (Ac − B a)/(Dc − B d), […]

Data set [2] can be described thus: Half-life in human liver microsomes. In kind it is in vitro ADME. The note with it: read-out: half-life (T1/2). The text has this: However, there was a significant improvement in potency with fluorine substitution at the hydrophobic anchor (R3 = CF3, compound 7). […] The trifluoromethyl group remained the best anchor throughout the hit expansion and drug discovery campaign. Assessment of the 4-substituted indole compounds (R1 = H, compounds 8–14) led to a breakthrough regarding the potency of the compounds. Our molecular modeling predicted that the side chain of Threonine-150 within the p53 Y220C protein would form a hydrogen bond with the ligand. This interaction helped to orient the ligand in the binding pocket of the p53 Y220C mutant protein and enhance other interactions such as hydrophobic and van der Waals interactions. […] With the nitrogen atom in place, various polar groups were assessed, and it was determined that basic nitrogen, such as that in the piperidine ring, was preferred for maintaining the potency of the compound (R2 = S5). Many substituents can be tolerated for the aromatic ring occupying the subsite.

For data set [3], the system named is NUGC-3, gastric cancer cell line with a TP53 Y220C mutation. The data set is described as follows: MTT cell proliferation assay. It is filed as cell-based, human. The note with it: for IC50: Homo sapiens, NUGC-3, 120 h, NUGC-3 cells, five days incubation. The procedure: We also evaluated the effects of these compounds on the growth and viability of four cancer cell lines in vitro. Two of the cell lines (NUGC-3, gastric cancer cell line with a TP53 Y220C mutation and T3M-4, pancreatic carcinoma cell line) have the TP53 Y220C mutation leading to the p53 Y220C mutant protein; SJSA-1 is a p53 WT cell line, and NUGC-3-KO is an isogenic p53 knockout cell line.[11] After incubating the cells with the compounds for five days, cell viability was measured using the 3-(4,5-dimethylthiazol-2-yl)-2,5-diphenyltetrazolium bromide (MTT) assay.
C = (Ac − B a)/(Dc − B d),
Prism (GraphPad) or XLfit software (IDBS).
Cells were seeded at an appropriate
Compounds were tested at eight concentrations with 2-fold serial dilutions. […]
with a reference wavelength of 650 nm. […]
untreated cells (control). […]

The nature of data set [4]: Pharmacokinetic study in mice. The note with it: 50 mg/kg.
Protocol: (§1) Pharmacokinetic parameters were evaluated in female CD-1 mice. Animals received an oral gavage dose of 50 mg/kg of the test article. The test article was formulated in a solution containing 2% hydroxypropyl
(§2) cellulose and 0.5% Tween 80 in water. Blood samples were collected at 0.5, 1, 2, 4, 7, and 24 h post dose.
(§3) Blood samples were processed into plasma, and the concentrations of the test article were determined by
(§4) LC-MS/MS. P harmacokinetic parameters were calculated using the Phoenix WinNonlin 6.3 program,
(§5) employing a non- compartmental model 200.
The nature of data set [5]: Caco-2 permeability. It is filed as in vitro ADME. The note with it: human. The source says: Significant efforts were dedicated to the optimization of compound 13, and a successful approach involved fluorine substitution of the piperidine ring. Fluorine substitution often plays a crucial role in medicinal chemistry, exerting a substantial impact on the characteristics of drug molecules.[12],[13] Incorporation of fluorine atoms can yield diverse effects and improvements in a drug’s pharmacological properties. In the case of the piperidine ring in compound 13, several key effects of fluorine substitution were predicted, including enhanced hydrogen bonding with Threonine-150, increased conformational rigidity of the piperidine ring, and reduced basicity. […] We postulated that the fluorine atom on the piperidine ring of compound 22, which preferentially stays in the axial position, can form a better hydrogen bond with the N-H group of Threonine-150. The enhanced cellular potency of compound 22 can be attributed to the enhanced permeability. […] Recently, insights into the conformational behavior of cis-fluorinated piperidines were reported.[14]

Data set [6] concerns NUGC-3 tumor xenografts. The data set can be described thus: NUGC-3 tumor xenograft efficacy in nude mice. The note with it: 150 mg/kg, same xenograft model. In kind it is in vivo, mouse. The procedure: Compound 26 (rezatapopt; PC14586), which had the most favorable plasma exposure, was evaluated for its ability to inhibit the growth of NUGC-3 tumor xenografts in nude mice.
Study of C ompound 26 in NUGC-3 Xenograft
Female Balb/c nude mice, aged 4 to 6 weeks, were obtained from Envigo (Madison, WI). All mice were housed at the PMV Pharmaceuticals Vivarium. Mouse care and experimental procedures adhered to institutional guidelines for ethical use, with all research protocols approved by the Institutional Animal Care and Use Committees of PMV Pharmaceuticals. The mice were maintained at ambient temperatures of 68–72 °F, with 30–70% humidity, and a 12 -hour dark/light cycle.
NUGC-3 cells were resuspended at a concentration of 1×10^7 viable cells/mL in a 50:50 mixture of phosphate-buffered saline and Matrigel Matrix (Corning). Subsequently, 100 µL of the suspension was injected subcutaneously into the dorsal flankof the mice . Mice were selected and randomized into treatment groups based on tumor size.

The conditions of data set [7]: female, CD-1, mouse, in vivo, po, 50 mg/kg.
Protocol: as §1, §2, §3, §4, §5
[8] abbreviates: Table 1, concentration required to increase DNA binding by 1.5-fold.
Where [9] appears, read: Table 2, concentration required to increase DNA binding by 1.5-fold.
Where [10] appears, read: Table 3, concentration required to increase DNA binding by 1.5-fold.

With `CCn1c(C#CCNc2ccccc2)cc2cc(CNC)ccc21` [Compound 1, N-[3-[1-ethyl-5-(methylaminomethyl)indol-2-yl]prop-2-ynyl]aniline], the SC150 in data set [1] (Figure 1, enhancement of DNA binding) stood at 13600 nM; in data set [1] (setting [8]), 13600 nM. For the same molecule, in data set [2], the half-life came out at 4 min.
As for `COc1cc(S(C)(=O)=O)ccc1NCC#Cc1cc2c(NC3CCN(C)CC3)cccc2n1CC(F)(F)F` [Compound 13], the SC150 in data set [1] (setting [8]) and in data set [1] (setting [9]) was 23 nM in each case. In addition, the midpoint of inhibition in data set [3] (Table 2), the IC50, lay at 2100 nM. Also, in data set [4] (Table 2, PO), the “Mouse PK Exposure AUC0-last” value came out at 3545 ng·h/mL. For the same molecule, in data set [4] (Table 2, PO), the “Mouse PK Exposure Cmax” value was found to be 903 ng/mL. Also, the Papp in data set [5] is 11.8 ×10⁻⁶ cm/s.
As to `COc1cc(S(C)(=O)=O)ccc1NCC#Cc1cc2c(N[C@@H]3CCN(C)C[C@@H]3F)cccc2n1CC(F)(F)F` [Compound 22, N-[(3S,4R)-3-fluoro-1-methyl-4-piperidyl]-2-[3-(2-methoxy-4-methylsulfonyl-anilino)prop-1-ynyl]-1-(2,2,2-trifluoroethyl)indol-4-amine], the SC150 in data set [1] (setting [9]) is recorded as 8 nM. The molecule also returned a concentration for half-maximal inhibition (IC50) in data set [3] (Table 2) of 300 nM. Further, the concentration for half-maximal inhibition (IC50) in data set [3] (Table 3) was 325 nM. Moreover, the “fold increased potency compared with compound 13” value in data set [3] (MTT assay, vs compound 13) was “approximately 7 fold”. Moreover, in data set [4] (Table 2, PO), the “Mouse PK Exposure AUC0-last” value is given as 12567 ng·h/mL and the “Mouse PK Exposure Cmax” value is given as 2103 ng/mL. This molecule came in with a Papp in data set [5] of 19.9 ×10⁻⁶ cm/s.
As for `COc1cc(S(N)(=O)=O)ccc1NCC#Cc1cc2c(N[C@@H]3CCN(C)C[C@@H]3F)cccc2n1CC(F)(F)F` [Compound 23, 4-((3-(4-(((3S,4R)-3-fluoro-1-methylpiperidin-4-yl)amino)-1-(2,2,2-trifluoroethyl)-1H-indol-2-yl)prop-2-yn-1-yl)amino)-3-methoxybenzenesulfonamide], the SC150 in data set [1] (setting [10]) was 9 nM. 261 nM corresponded to half-maximal inhibition in data set [3] (Table 3) (IC50). In addition, in data set [4] (Table 3, PO), the “Mouse PK Exposure AUC0-last” value turned out to be 8066 ng·h/mL and the “Mouse PK Exposure Cmax” value is 1310 ng/mL.
In the case of `COc1cc(C(=O)O)ccc1NCC#Cc1cc2c(N[C@@H]3CCN(C)C[C@@H]3F)cccc2n1CC(F)(F)F` [Compound 24, 4-((3-(4-(((3S,4R)-3-fluoro-1-methylpiperidin-4-yl)amino)-1-(2,2,2-trifluoroethyl)-1H-indol-2-yl)prop-2-yn-1-yl)amino)-3-methoxybenzoic acid], the SC150 in data set [1] (setting [10]) was found to be 11 nM. The molecule further returned a half-inhibitory concentration (IC50) in data set [3] (Table 3) of 990 nM. In addition, the tumor growth inhibition in data set [6] was 54%. In data set [4] (Table 3, PO), the “Mouse PK Exposure AUC0-last” value is 57882 ng·h/mL and the “Mouse PK Exposure Cmax” value is 27700 ng/mL.
With `COc1cc(C(N)=O)ccc1NCC#Cc1cc2c(N[C@@H]3CCN(C)C[C@@H]3F)cccc2n1CC(F)(F)F` [Compound 25, 4-[3-[4-[[(3S,4R)-3-fluoro-1-methyl-4-piperidyl]amino]-1-(2,2,2-trifluoroethyl)indol-2-yl]prop-2-ynyl-amino]-3-methoxy-benzamide], the SC150 in data set [1] (setting [10]) stood at 8 nM. In data set [3] (Table 3), this molecule registered an IC50 of 446 nM. Moreover, in data set [4] (Table 3, PO), the “Mouse PK Exposure AUC0-last” value is 39774 ng·h/mL and the “Mouse PK Exposure Cmax” value was found to be 4473 ng/mL.
For the molecule `COc1cc(C(=O)NC2CCOCC2)ccc1NCC#Cc1cc2c(N[C@@H]3CCN(C)C[C@@H]3F)cccc2n1CC(F)(F)F` [Compound 27, 4-((3-(4-(((3S,4R)-3-fluoro-1-methylpiperidin-4-yl)amino)-1-(2,2,2-trifluoroethyl)-1H-indol-2-yl)prop-2-yn-1-yl)amino)-3-methoxy-N-(tetrahydro-2H-pyran-4-yl)benzamide], the SC150 in data set [1] (setting [10]) is recorded as 7 nM. In data set [3] (Table 3), this molecule showed a half-inhibitory concentration (IC50) of 531 nM. In addition, in data set [4] (Table 3, PO), the “Mouse PK Exposure AUC0-last” value was 3261 ng·h/mL and the “Mouse PK Exposure Cmax” value was determined as 807 ng/mL.
Consider `COc1cc(C(=O)N2CC3(COC3)C2)ccc1NCC#Cc1cc2c(N[C@@H]3CCN(C)C[C@@H]3F)cccc2n1CC(F)(F)F` [Compound 28, [4-[3-[4-[[(3S,4R)-3-fluoro-1-methyl-4-piperidyl]amino]-1-(2,2,2-trifluoroethyl)indol-2-yl]prop-2-ynyl-amino]-3-methoxy-phenyl]-(2-oxa-6-azaspiro[3.3]heptan-6-yl)methanone], for which the SC150 in data set [1] (setting [10]) is 7 nM. Besides, in data set [3] (Table 3), the half-inhibitory concentration (IC50) came out at 457 nM. Besides, in data set [7], the “Mouse PK Exposure AUC0-last” value is listed as 15328 ng·h/mL and the “Mouse PK Exposure Cmax” value amounted to 2747 ng/mL.
On to `COc1cc(C(=O)NCC(O)CO)ccc1NCC#Cc1cc2c(N[C@@H]3CCN(C)C[C@@H]3F)cccc2n1CC(F)(F)F` (stereo partly drawn) [Compound 29, N-(2,3-dihydroxypropyl)-4-[3-[4-[[(3S,4R)-3-fluoro-1-methyl-4-piperidyl]amino]-1-(2,2,2-trifluoroethyl)indol-2-yl]prop-2-ynylamino]-3-methoxy-benzamide], for which the SC150 in data set [1] (setting [10]) worked out at 8 nM. This molecule displayed an IC50 in data set [3] (Table 3) of 574 nM. In data set [4] (Table 3, PO), the “Mouse PK Exposure AUC0-last” value is recorded as 117 ng·h/mL and the “Mouse PK Exposure Cmax” value came to 54 ng/mL.
